Values of other authors as cited in patent publication US8956592B2, “Oral care compositions” (Colgate-Palmolive Company, priority 2010, dated 2015).

Tested on: S. mutans, F. nucleatum, V. parvula, A. naslundii, P. gingivitis
Settings: in vitro tests

Structure (SMILES) | bactericidal properties against representative oral bacteria
C=CCc1ccc(O)c(-c2ccc(O)c(CC=C)c2)c1 [honokiol] | bactericidal properties
C=CCc1ccc(O)c(-c2cc(CC=C)ccc2O)c1 [magnolol] | bactericidal properties
CCCc1ccc(O)c(-c2ccc(O)c(CCC)c2)c1 [tetrahydrohonokiol, 3′,5-dipropylbiphenyl-2,4′-diol] | bactericidal properties
CCCc1ccc(O)c(-c2cc(CCC)ccc2O)c1 [tetrahydromagnolol, 5,5′-dipropylbiphenyl-2,2′-diol] | bactericidal properties
